What was measured:
[1] = tested on: Posner-Schlossmans' Syndrome; experiment: Example 21: Posner-Schlossmans' Syndrome; format: in vivo, human
[2] = tested on: epidemic keratoconjunctivitis; experiment: Example 29: epidemic keratoconjunctivitis; format: in vivo, human
[3] = tested on: corneal endothelial cells; experiment: Example 27: regeneration and protection of corneal endothelial cells; format: in vivo, human; conditions: 10 days
Source text: As a measurement device, NONCON ROBO (KONAN INC) specular microscope was used.

[4] = tested on: intraocular pressure of house rabbit; experiment: Effects on intraocular pressure (animal experiment); format: in vivo, colored house rabbits
Experimental: For the experiments, five (10 eyes) colored house rabbits (body weight: 1.8 to 2 kg) with 8 months to 10 months from the birth were used. […] Intraocular pressure of the house rabbit before treating with eye drops/eye washes was 14 mmHg at 1 PM. […] The maximum dropping of the intraocular pressure appeared after 50 minutes from washing. Lowering effects of intraocular pressure continued at least up to after 5 hours from washing. […] This house rabbit was immediately washed again with the same eye drops/eye washes, intraocular pressure was lowered up to 13 mmHg after 45 minutes from washing. The house rabbit subjected to eye drops/eye washes treatment was allowed to stand, and intraocular pressure was measured next day at 9 AM, it was 18 mmHg, and the effects of eye drops/eye washes at the previous day remained. […] The effects of administration can be found to be continued for a long time.

C[C@]12CC[C@@H]3c4ccc(O)cc4CC[C@H]3[C@@H]1CC[C@@H]2O [17β-estradiol]
iritis ([1]; after 1 week): iritis disappeared
intraocular pressure Tos ([1]; patient, left eye, 1 mg/l, 1 drop (50 μl) once a day for 1 week, before 36): 17 mmHg
eye discharge ([2]; 1 mg/l once a day, fourth day): eye discharge was increased
keratitis superficialis diffusa ([2]; person, 1 mg/l, 1 drop (50 μl) once a day): cured at the fourth day
number of left eye endothelial cells ([3]; before 2906): 3496 per mm^2
number of right eye endothelial cells ([3]; person, 1 mg/l, 1 drop (50 μl) once a day, before 2801): 3410 cells/mm²
intraocular pressure ([4]; 25 μl (1 drop) of 100 mg/l at 1 PM, after 3.5 hours, before 14 mmHg): 10 mmHg
time the intraocular pressure effect continued ([4]; after 25 μl drop at 1 PM): ≥ 5 h
time the lowering effect of intraocular pressure continued ([4]; after washing): ≥ 5 h
time of maximum dropping of intraocular pressure ([4]; after washing with 100 mg/l eye washes at 1 PM): 50 min
intraocular pressure ([4]; high-pressure eye, 45 minutes after second washing): 13 mmHg
intraocular pressure ([4]; high-pressure eye, next day 9 AM, before further administration): 18 mmHg
intraocular pressure ([4]; high-pressure eye, second day, 1 hour 50 minutes after third 25 μl drop): 12 mmHg
intraocular pressure ([4]; high-pressure eye, second day, 3 hours 15 minutes after 25 μl drop): 13 mmHg
intraocular pressure ([4]; high-pressure eye, second day, 3 hours 15 minutes after second 25 μl drop): 13 mmHg
intraocular pressure ([4]; high-pressure eye, third day 3:15 PM): 12 mmHg
intraocular pressure ([4]; high-pressure eye, third day 6 PM): 11 mmHg
intraocular pressure ([4]; high-pressure eye, third day 9 AM before administration): 10 mmHg
intraocular pressure ([4]; high-pressure eye, third day noon, 3 hours after 25 μl drop): 9 mmHg
intraocular pressure ([4]; rabbit with one high-pressure eye, 24 mmHg before, 15 minutes after washing at 5 PM): 15 mmHg
